Like-named read-outs stand apart in the source and are kept apart here. Numbered stars: 1 amine (or outer) side, 2 acyl side, 3 side chain; on linkers, the order of the positions; unused ones are H or OH. Bridge positions count the residues as written; N and C are the ends. Square brackets hold non-standard residues; d marks the D form. Peptide text beside a SMILES is read from it. 1Nal = N[C@@H](Cc1cccc2ccccc12)C(=O)O; TBMB = c1c(C[*:1])cc(C[*:3])cc1C[*:2]; Tle = CC(C)(C)[C@H](N)C(=O)O; βAla = NCCC(=O)O; Sar = CNCC(=O)O
Legend:
[1] = human; previously reported; cited from earlier work
[2] = rat; previously reported; cited from earlier work
[3] = monkey; previously reported; cited from earlier work
[4] = [^3H]-DM1 200 μg/kg IV, rat; cited from earlier work
[5] = tested on: catalytic domain of MT1-MMP; test: Binding to catalytic domain of MT1-MMP
Experimental: (§1) Bicycle drug conjugates (BDCs) with a variety of linkers and cytotoxic payloads were prepared which retained binding to MT1.
(§2) BT1718 is a BDC that binds to MT1-MMP and upon cleavage of its disulphide linker, releases the cytotoxic tubulin inhibitor, DM1 (also referred to as DM1-SH).

[6] = tested on: MMP15, MMP16, MMP24, MMP1, Pro-MMP1, MMP2; test: Binding to related MMP family members
Experimental: as §1, §2

MT1-MMP = MT1-MMP (Homo sapiens, UniProt P50281); test: Effect on catalytic (proteolytic) activity of MT1-MMP; format: biochemical; conditions: in vitro
Experimental: as §1, §2

MMP1, MMP2 and MMP9 = test: Effect on related MMP catalytic activity; format: biochemical
Experimental: as §1

[7] = tested on: cell migration or invasion; test: Cell migration or invasion; format: cell-based
Experimental: as §1

[8] = Intrinsic clearance in cryopreserved hepatocytes; format: in vitro ADME
Experimental: Accumulation of the majority of the radioactivity was found in the kidney and bladder irrespective of the labelled peptide dose; this is indicative of either non-saturable excretion or proteolysis followed by excretion through the kidneys. Furthermore, the intrinsic clearance of BT1718 and its Bicycle component, N241 was low when measured in cryopreserved hepatocytes. […] Unconjugated DM1, when radiolabelled, (as [[^3H]-DM1 (91 μCi/kg, 200 μg/kg, IV), was reported to distribute rapidly and extensively to the lungs, liver, kidney, spleen, heart, gastrointestinal tract, and adrenal glands in the rat. The major route of excretion of DM1 was through the bile/faeces, with a minimal amount excreted in the urine, a completely different distribution to BT1718 and its metabolites with little and short lived accumulation seen in other organs such as heart, liver, GI and lungs which would imply that these organs maybe spared systemic toxicity.

[9] = in vitro immunogenicity tests, n=50
From the text: These include in vitro tissue microarray in human, rat and monkey tissues and in vitro and in vivo assessment of immunogenicity. In vivo assessments include single dose toxicity in mice and rats, multiple dose range finding studies in mice, rats, dogs and monkeys (non-GLP) and GLP-compliant multiple dose studies in rats and monkeys consisting of 28-day on study phase with a 28-day recovery period.

[10] = tested on: MT1 MMP-expressing NSCLC PDX models; test: MT1-MMP-expressing NSCLC PDX models, docetaxel-sensitive and -resistant; format: in vivo; conditions: 60 mg/m^2 once weekly
From the text: Furthermore, BT1718 produced an anti-tumor effect against MT1 MMP-expressing NSCLC PDX models irrespective of their sensitivity to the SOC chemotherapeutic docetaxel. […] The PDX models confirm that MT1-MMP expression is necessary for BT1718 anti-tumor activity.

NMB selected tumors = conditions: cited from earlier work
[11] = tested on: HER2 positive breast cancer; conditions: third-line, HER2 positive population; cited from earlier work
NSCLC = conditions: second-line treatment, PD-1 checkpoint blockade; cited from earlier work

## COc1cc2cc(c1Cl)N(C)C(=O)C[C@H](OC(=O)[C@H](C)N(C)C(=O)CCS)[C@]1(C)O[C@H]1[C@H](C)[C@@H]1C[C@@](O)(NC(=O)O1)[C@H](OC)/C=C/C=C(\C)C2 [DM1]
[1]
  unbound fraction: 7%
[2]
  unbound fraction: 3%
[3]
  unbound fraction: 7%
[4]
  major route of excretion: bile/faeces

## C[C@H](NC(=O)CN(C)C(=O)CN(C)C(=O)CN(C)C(=O)CN(C)C(=O)CN(C)C(=O)CN(C)C(=O)CN(C)C(=O)CN(C)C(=O)CN(C)C(=O)CN(C)C(=O)CCN)C(=O)N[C@H]1CSCc2cc3cc(c2)CSC[C@H](NC(=O)[C@@H](C)NC(=O)[C@H](Cc2cccc4ccccc24)NC(=O)[C@H](CCC(=O)O)NC(=O)[C@H](CC(N)=O)NC(=O)[C@@H](C)NC1=O)C(=O)N[C@@H](CCC(=O)O)C(=O)N[C@@H](CC(=O)O)C(=O)N[C@@H](Cc1ccccc1)C(=O)N[C@@H](Cc1ccc(O)cc1)C(=O)N[C@@H](CC(=O)O)C(=O)N[C@@H](C(C)(C)C)C(=O)N[C@H](C(N)=O)CSC3 [N241] (H-[βAla][Sar][Sar][Sar][Sar][Sar][Sar][Sar][Sar][Sar][Sar]AC[dA]NE[1Nal][dA]CEDFYD[Tle]C-NH2; linker 13-19-26 via TBMB; N-terminus and C-terminus assumed)
[5]
  binding to the catalytic domain: no binding
  selectivity over catalytic domain of MT1-MMP: at least 50 fold
[6]
  selectivity over other related-MMP hemopexin domains: over 200 fold
[6]; MMP15, MMP16, MMP24, MMP1, Pro-MMP1, MMP2
  binding toward closely related MMP family members: no binding
MT1-MMP
  impact on the catalytic activity of the protease: no direct impact
MMP1, MMP2 and MMP9
  impact on related MMP catalytic activity: no direct impact
[7]
  impact on cell migration or invasion: no direct impact
[8]
  intrinsic clearance: low
[9]
  positive responses in donor cohort: 2%

## CC(=O)O[C@@]12CO[C@@H]1C[C@H](O)[C@@]1(C)C(=O)[C@H](O)C3=C(C)[C@@H](OC(=O)[C@H](O)[C@@H](NC(=O)OC(C)(C)C)c4ccccc4)C[C@@](O)([C@@H](OC(=O)c4ccccc4)[C@H]21)C3(C)C [docetaxel]
[10]
  anti-tumor effect: regression only in the docetaxel-sensitive model

## CDX-011: Antibody-Drug Conjugate (ADC) against glycoprotein NMB
NMB selected tumors
  ORR: 30%

## T-DM1
[11]
  ORR: 31%

## atezolizumab: PD-1 checkpoint blockade agent
NSCLC
  ORR: around 20%

## nivolumab: PD-1 checkpoint blockade agent
NSCLC
  ORR: around 20%

## pembrolizumab: PD-1 checkpoint blockade agent
NSCLC
  ORR: around 20%
